Data on six compounds can be found in patent US20240417407A1, “FUROINDAZOLE DERIVATIVES AS GPR84 ANTAGONISTS” (Bayer Aktiengesellschaft, priority 2021, published 2024).

T1 sequence (Q9NQS5 whole entry): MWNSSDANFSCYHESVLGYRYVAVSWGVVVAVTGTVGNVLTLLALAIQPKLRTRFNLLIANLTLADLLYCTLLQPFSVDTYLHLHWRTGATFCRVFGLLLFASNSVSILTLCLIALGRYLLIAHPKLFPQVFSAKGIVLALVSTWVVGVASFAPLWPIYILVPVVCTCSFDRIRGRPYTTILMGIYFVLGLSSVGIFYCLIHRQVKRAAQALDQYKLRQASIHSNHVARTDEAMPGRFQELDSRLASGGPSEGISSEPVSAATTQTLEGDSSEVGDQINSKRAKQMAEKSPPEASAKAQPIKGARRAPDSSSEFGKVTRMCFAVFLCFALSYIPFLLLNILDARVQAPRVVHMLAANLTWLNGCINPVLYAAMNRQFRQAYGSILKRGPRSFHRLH

The test addresses T1, human GPR84 receptor (Homo sapiens, UniProt Q9NQS5).
T1 construct: frozen aliquots prepared by acCELLerate; host or cells: CHO-K1
Nature of the test: cAMP HTRF assay for identification of cellular GPR84 antagonists. Format: cell-based. Particulars: CHO-K1 cells stably expressing human GPR84; Forskolin plus agonist 6-OAU; cAMP HTRF readout; average or median values. From the text: cAMP HTRF® Assay for Identification of Cellular GPR84 Antagonists
By using a Homogenous Time-Resolved Fluorescence (HTRF®) based assay (#62AM5PEJ, Cisbio, Condolet, France) the inhibition of the Gi-coupled GPR84 receptor can be detected. CHO-K1 cells stably expressing human GPR84 receptor (purchased from DiscoveRx, now Eurofins) were used and treated with Forskolin (F6886, Sigma, Germany) to stimulate membrane adenylyl cyclases and thereby unspecific cAMP formation. Activation of the Gi-coupled GPR84 by a natural or small molecule agonist (e.g. 6-n-octyl aminouracile, inhouse) results in inhibition of cellular cAMP formation which can be released again by antagonists to this receptor. Detection and quantification of cellular cAMP levels in this HTRF assay is achieved by interaction between a fluorescent cAMP tracer (cAMP-d2) and an Eu-cryptate labelled anti-cAMP antibody. Following excitation at 337 nm this pairing allows for the generation of a fluorescence resonance energy transfer (FRET) between the partners and results in FRET induced emissions at 665 nm and 620 nm, the latter representing background signal by Eu-cryptate labelled anti-cAMP antibody. Maximal signal is obtained in the absence of any cellular cAMP (no competition for the binding of the tracer to the antibody). Given the combination of the Gi coupling properties of GPR84 and the competitive nature of the detection system agonist treatment should result in an increase in the HTRF signal due to lowered cAMP levels. Any signal decrease in the presence of Forskolin, agonist and compound is indicative of antagonist mediated abrogation of GPR84 signalling.
For the assay, frozen aliquots of CHO-K1 cells expressing hGPR84 (prepared by acCELLerate, Hamburg, Germany) were thawed and a cell suspension (1.67E+06 cells/mL) in assay media (Ham's F12 Nutrient Mix, Thermo Fisher Scientific, Waltham, USA; 5% fetal calf serum, Biomol, Hamburg, Germany) containing cAMP-d2 (dilution 1:20, supplied with the kit #62AM5PEJ, Cisbio, Condolet, France) was prepared. After recovery of cells for 20 minutes at 37° C., 3 μL/well cell suspension including cAMP-d2 were added to a pre-dispensed assay plate (Greiner Bio-One, Kremsmuenster, Austria) containing 50 nl/well test compound in 100% DMSO or 100% DMSO as control. This was followed by a 30 minutes incubation step at room temperature. […] The reaction was stopped by addition of 3 μL/well lysis buffer containing cAMP Eu-Cryptate antibody (dilution 1:20) (both supplied with the kit #62AM5PEJ, Cisbio, Condolet, France). To enable complete lysis, plates were incubated for 60 minutes at room temperature before measurement in an HTRF reader, e.g. a PHERAstar (BMG Labtech, Ortenberg, Germany).
From the fluorescence emissions at 665 nm (FRET) and at 620 nm (background signal of Eu-cryptate) the ratio (emission at 665 nm divided by emission at 620 nm×10000) was calculated and the data were normalized (reaction without test compound, only 100% DMSO=0% inhibition; all other assay components except agonist=100% inhibition). For dose response testing on the same microtiter plate, compounds were tested at 11 different concentrations in the range of 20 μM to 0.07 nM (20 μM, 5.7 μM, 1.6 μM, 0.47 μM, 0.13 μM, 38 nM, 11 nM, 3.1 nM, 0.89 nM, 0.25 and 0.07 nM; dilution series prepared before the assay at the level of the 100-fold conc. stock solutions by serial 1:3.5 dilutions in 100% DMSO) in duplicate values for each concentration. IC50 values were calculated by 4-parameter fitting using a commercial software package (Genedata Screener, Basel, Switzerland).
Examples were tested in selected biological assays one or more times. […]
(Time-resolved FRET reads energy transfer from a long-lived donor to a nearby acceptor.)
As usually defined, the IC50 is the concentration that gives 50% inhibition. As to `Cc1cc2oc(C(=O)NC[C@@H]3COCCO3)c(C(F)(F)F)c2c2nn(C[C@H]3COCCO3)cc12` [Example 39, N-{[(2R)-1,4-dioxan-2-yl]methyl}-2-{[(2S)-1,4-dioxan-2-yl]methyl}-4-methyl-8-(trifluoromethyl)-2H-furo[2,3-g]indazole-7-carboxamide], the IC50 was 32 nM.
The result for `Cc1c(C(=O)NC[C@@H]2CCCO2)oc2ccc3cn(Cc4ccccn4)nc3c12` [Example 40, 8-methyl-2-(pyridin-2-ylmethyl)-N-[(2S)-tetrahydrofuran-2-ylmethyl]-2H-furo[2,3-g]indazole-7-carboxamide] reads 16 nM.
The result for `O=C(NC[C@@H]1CCCO1)c1oc2ccc3cn(Cc4ccccn4)nc3c2c1CO` [Example 41, 8-(hydroxymethyl)-2-(pyridin-2-ylmethyl)-N-[(2S)-tetrahydrofuran-2-ylmethyl]-2H-furo[2,3-g]indazole-7-carboxamide] reads 530 nM; that for `O=C(NC[C@@H]1CCCO1)c1cc2c(ccc3cn(Cc4ccccn4)nc32)o1` [Example 42, 2-(pyridin-2-ylmethyl)-N-[(2S)-tetrahydrofuran-2-ylmethyl]-2H-furo[2,3-g]indazole-7-carboxamide], 880 nM; that for `O=C(NC[C@@H]1CCCO1)c1cc2c(cc(Br)c3cn(Cc4ccccn4)nc32)o1` [Example 43, 4-bromo-2-(pyridin-2-ylmethyl)-N-[(2S)-tetrahydrofuran-2-ylmethyl]-2H-furo[2,3-g]indazole-7-carboxamide], 4930 nM.
The result for `CCc1cc2oc(C(=O)NC[C@@H]3COCCO3)c(C)c2c2nn(C[C@H]3COCCO3)cc12` [Example 44, N-{[(2R)-1,4-dioxan-2-yl]methyl}-2-{[(2S)-1,4-dioxan-2-yl]methyl}-4-ethyl-8-methyl-2H-furo[2,3-g]indazole-7-carboxamide] reads 54 nM.
